Consider 15 compounds from PubChem BioAssay (NCI).

Among the test systems are ACHN renal; SNB-19 CNS; UACC-257 melanoma; HOP-92 NSCLC; SF-268 CNS; M14 melanoma; OVCAR-3 ovarian; RXF 393 renal; SK-MEL-5 melanoma; U251 CNS; MALME-3M melanoma; SR leukemia; HCC-2998 colon; MDA-MB-435; MCF7 breast; HS 578T breast.
Holding throughout (assay): inhibition of tumour cell growth, NCI panel, 48 h

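Values below derive from 48-hour exposures of cells grown in 96-well plates, with endpoints linearly interpolated between the two concentrations bracketing the appropriate inhibition level. TGI: concentration producing complete growth inhibition.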

Take `O=C(c1ccc(Cl)cc1)N(C(=S)N1CCN(c2ccccc2)CC1)c1ccccc1`: the TGI in the assay on ACHN renal, in the assay with SNB-19 CNS, with UACC-257 melanoma, in the assay on HOP-92 NSCLC, with SF-268 CNS and in the assay on M14 melanoma was more than 100 µM in each case. Besides, the TGI in the assay on OVCAR-3 ovarian, with RXF 393 renal, with SK-MEL-5 melanoma, with U251 CNS, with MALME-3M melanoma and with SR leukemia was more than 100 µM each time.

For the compound `COc1ccc(/C=N/n2c(Cc3ccc(Cl)cc3)n[nH]c2=O)cc1`, the TGI in the assay with HCC-2998 colon was more than 100 µM; in the assay with ACHN renal, more than 100 µM; in the assay on SNB-19 CNS, 35.6 µM; with UACC-257 melanoma, more than 100 µM; with HOP-92 NSCLC, 44.7 µM; with MDA-MB-435 it was more than 100 µM. The TGI with M14 melanoma was more than 100 µM; with MCF7 breast, more than 100 µM; in the assay on OVCAR-3 ovarian, more than 100 µM; with RXF 393 renal it was 35.1 µM; in the assay on U251 CNS, 33.6 µM; in the assay on SR leukemia it was more than 100 µM.

Turning to `Cc1ccc(S(=O)(=O)OCC23CCC(C4CC42)C2CC23)cc1` (centres undefined), the TGI is more than 100 µM in the assay with HCC-2998 colon; more than 100 µM in the assay with ACHN renal; more than 100 µM in the assay with SNB-19 CNS; 89.1 µM with UACC-257 melanoma; more than 100 µM with HOP-92 NSCLC; more than 100 µM with SF-268 CNS. The TGI in the assay with M14 melanoma, in the assay with OVCAR-3 ovarian, with SK-MEL-5 melanoma, in the assay with U251 CNS, with MALME-3M melanoma and in the assay with SR leukemia was more than 100 µM each time.

With `Cc1ccc(NNc2cc(=O)[nH]c(=O)[nH]2)cc1Cl`, the TGI is 29.8 µM with HCC-2998 colon; 21.4 µM in the assay on ACHN renal; more than 100 µM in the assay with SNB-19 CNS; 32 µM in the assay on UACC-257 melanoma; 27.9 µM in the assay on HOP-92 NSCLC; more than 100 µM with SF-268 CNS. Besides, the TGI in the assay with HS 578T breast is more than 100 µM; with M14 melanoma it was 26.9 µM; in the assay on OVCAR-3 ovarian, 28 µM; in the assay with RXF 393 renal it was 30.4 µM; with SK-MEL-5 melanoma, more than 100 µM; in the assay on U251 CNS, 30 µM. The values for the TGI in the assay with MALME-3M melanoma and in the assay on SR leukemia were 31.9 µM and more than 100 µM, respectively.

For `Cc1ccc(-c2c(C#N)c(S)n(NS(=O)(=O)c3ccccc3)c(=O)c2C#N)cc1`, the TGI was more than 100 µM with HCC-2998 colon; 82 µM in the assay on ACHN renal; more than 100 µM with SNB-19 CNS; more than 100 µM with UACC-257 melanoma; more than 100 µM with HOP-92 NSCLC; 78.9 µM with MDA-MB-435. Further, the TGI with M14 melanoma is more than 100 µM; in the assay on MCF7 breast it was more than 100 µM; with OVCAR-3 ovarian it was more than 100 µM; in the assay on RXF 393 renal, more than 100 µM; in the assay with SK-MEL-5 melanoma it was 69.4 µM; with U251 CNS it was 83.5 µM. Also, the TGI with MALME-3M melanoma is more than 100 µM; in the assay on SR leukemia, 58.1 µM.

Consider `O=C(/C=C/c1ccc(Cl)c(Cl)c1)CCN1CCN(CCC(=O)/C=C/c2ccc(Cl)c(Cl)c2)CC1`, for which the TGI in the assay on HCC-2998 colon was 28.9 µM; in the assay with ACHN renal it was 34.5 µM; in the assay with UACC-257 melanoma, more than 100 µM; with HOP-92 NSCLC, 64.8 µM; in the assay on SF-268 CNS, more than 100 µM; with MDA-MB-435, 55.1 µM. For the same compound, the TGI in the assay on M14 melanoma was 35.6 µM; with MCF7 breast, 19.4 µM; with OVCAR-3 ovarian it was 58.4 µM; in the assay with RXF 393 renal, 38.9 µM; in the assay with SK-MEL-5 melanoma, 38.2 µM; in the assay with U251 CNS, 49.2 µM. The TGI in the assay on SR leukemia is more than 100 µM.

On to `O/N=C1\CC2(N3CCOCC3)CCC1(Cc1ccccc1)CC2`, for which the TGI in the assay on HCC-2998 colon is more than 100 µM; in the assay on ACHN renal, 63.4 µM; in the assay on SNB-19 CNS it was 63.5 µM; in the assay on UACC-257 melanoma, more than 100 µM; in the assay with HOP-92 NSCLC, 89.2 µM; in the assay on SF-268 CNS it was 76.6 µM. For the same compound, the TGI in the assay with MDA-MB-435 was more than 100 µM; in the assay with M14 melanoma, more than 100 µM; in the assay on MCF7 breast, more than 100 µM; in the assay with OVCAR-3 ovarian, more than 100 µM; with RXF 393 renal, 42 µM; in the assay on SK-MEL-5 melanoma, more than 100 µM. Also, the TGI in the assay on U251 CNS was 38.3 µM; in the assay on MALME-3M melanoma, more than 100 µM; with SR leukemia, more than 100 µM.

With `CCCN(CCC)C(=O)Cc1c2n(c3ccccc13)Cc1ccccc1-2`, the TGI is more than 100 µM with HCC-2998 colon; more than 100 µM in the assay on ACHN renal; more than 100 µM with SNB-19 CNS; more than 100 µM in the assay with UACC-257 melanoma; 57.7 µM in the assay with HOP-92 NSCLC; more than 100 µM in the assay with SF-268 CNS. The TGI in the assay with M14 melanoma, in the assay with OVCAR-3 ovarian, in the assay on RXF 393 renal, with SK-MEL-5 melanoma, in the assay with U251 CNS and with MALME-3M melanoma was more than 100 µM in each case. This compound also returned a TGI in the assay with SR leukemia of more than 100 µM.

As for `O=S(=O)(O)Nc1ccc(-c2nc3ccccc3s2)cc1Cl`, the TGI in the assay on HCC-2998 colon, in the assay on ACHN renal, in the assay on SNB-19 CNS, in the assay on UACC-257 melanoma, in the assay on HOP-92 NSCLC and in the assay on MDA-MB-435 was more than 100 µM throughout. Further, the TGI with HS 578T breast, in the assay on M14 melanoma, in the assay with OVCAR-3 ovarian, in the assay on RXF 393 renal, in the assay on SK-MEL-5 melanoma and in the assay with U251 CNS was more than 100 µM throughout. In addition, the TGI in the assay with MALME-3M melanoma and in the assay on SR leukemia was more than 100 µM throughout.

Turning to `CCCC(=O)N[C@@H](Cc1cc(I)c(O)c(I)c1)C(=O)NCCCNCCCCNCCCNC(=O)[C@@H](N)CCCN=C(N)N`, the TGI in the assay with HCC-2998 colon, with ACHN renal, in the assay on SNB-19 CNS, in the assay with UACC-257 melanoma, with M14 melanoma and in the assay with OVCAR-3 ovarian was more than 100 µM throughout. The TGI in the assay with RXF 393 renal, in the assay on SK-MEL-5 melanoma, in the assay with U251 CNS, with MALME-3M melanoma and in the assay with SR leukemia was more than 100 µM in each case.

For the compound `Cn1c2ccccc2n2c3ccccc3c(=S)c(C#N)c12`, the TGI in the assay on HCC-2998 colon, with ACHN renal, in the assay on SNB-19 CNS, in the assay on UACC-257 melanoma, in the assay with SF-268 CNS and in the assay with MDA-MB-435 was more than 100 µM each time. The TGI in the assay on HS 578T breast, with M14 melanoma, in the assay with MCF7 breast, in the assay with OVCAR-3 ovarian, in the assay with RXF 393 renal and with SK-MEL-5 melanoma was more than 100 µM in each case. Also, the TGI with U251 CNS and in the assay on SR leukemia was more than 100 µM each time.

On to `CC1(C)OC2CN(C(=O)OCc3ccccc3)C(CO)C2O1` (centres undefined), for which the TGI with HCC-2998 colon, in the assay on ACHN renal, with SNB-19 CNS, in the assay on UACC-257 melanoma, in the assay on HOP-92 NSCLC and in the assay with SF-268 CNS was more than 100 µM each time. In addition, the TGI with MDA-MB-435, with HS 578T breast, in the assay on M14 melanoma, in the assay on MCF7 breast, in the assay on OVCAR-3 ovarian and with RXF 393 renal was more than 100 µM in each case. Besides, the TGI with SK-MEL-5 melanoma, in the assay on U251 CNS and in the assay on MALME-3M melanoma was more than 100 µM throughout.

On to `N#C[C@](CO)(NC(=O)OCc1ccccc1)C(F)F`, for which the TGI with HCC-2998 colon, in the assay with ACHN renal, in the assay on SNB-19 CNS, with UACC-257 melanoma, in the assay with HOP-92 NSCLC and with SF-268 CNS was more than 100 µM each time. Moreover, the TGI in the assay with MDA-MB-435, with HS 578T breast, in the assay on M14 melanoma, with OVCAR-3 ovarian, with RXF 393 renal and in the assay on SK-MEL-5 melanoma was more than 100 µM each time. The TGI with U251 CNS, in the assay with MALME-3M melanoma and with SR leukemia was more than 100 µM throughout.

As to `CCOC(=O)/C=C/[C@H](O[Si](c1ccccc1)(c1ccccc1)c1ccccc1)C(C)(C)C`, the TGI with HCC-2998 colon, in the assay with ACHN renal, in the assay with SNB-19 CNS, with UACC-257 melanoma, in the assay with HOP-92 NSCLC and with SF-268 CNS was more than 31.6 µM throughout. Besides, the TGI in the assay on MDA-MB-435 is more than 31.6 µM; with HS 578T breast, more than 31.6 µM; in the assay on M14 melanoma, more than 100 µM; in the assay on MCF7 breast, more than 31.6 µM; in the assay with OVCAR-3 ovarian, more than 31.6 µM; with RXF 393 renal it was more than 31.6 µM. For the same compound, the TGI with SK-MEL-5 melanoma, with U251 CNS and in the assay on MALME-3M melanoma was more than 31.6 µM in each case.

Consider `FC(F)(F)C1(C(F)(F)F)OC(Cl)(Cl)C(Cl)(Cl)O1`, for which the TGI in the assay with HCC-2998 colon, in the assay on ACHN renal, with SNB-19 CNS, with UACC-257 melanoma, in the assay with HOP-92 NSCLC and in the assay on SF-268 CNS was more than 10 µM in each case. Besides, the TGI in the assay with MDA-MB-435, in the assay with HS 578T breast, with M14 melanoma, in the assay on MCF7 breast, with OVCAR-3 ovarian and with RXF 393 renal was more than 10 µM throughout. Further, the TGI with SK-MEL-5 melanoma, with U251 CNS and in the assay with MALME-3M melanoma was more than 10 µM in each case.
